These results are taken from publication PMC5951611, “Structural studies and molecular dynamics simulations suggest a processive mechanism of exolytic lytic transglycosylase from Campylobacter jejuni” (PLoS ONE, 2018).

This experiment deals with T1, soluble lytic transglycosylase Cj0843 (Campylobacter jejuni, UniProt Q0PA47).
T1 construct: gene Cj0843c; Cj0843-pET28b expressed in E. coli (not glycosylated); native P3_121 model contains residues 19–76 and 81–532
Briefly: crystal structure ([…] Å, soaked crystals) and DSF Kd; also partial inhibition in PG turbidity assay. The class given is binding.

In general, Kd refers to the constant that tells how readily two partners part at equilibrium. Low readings indicate a tighter complex, high ones a looser complex.

T1 sequence (Q0PA47 entry or part of it): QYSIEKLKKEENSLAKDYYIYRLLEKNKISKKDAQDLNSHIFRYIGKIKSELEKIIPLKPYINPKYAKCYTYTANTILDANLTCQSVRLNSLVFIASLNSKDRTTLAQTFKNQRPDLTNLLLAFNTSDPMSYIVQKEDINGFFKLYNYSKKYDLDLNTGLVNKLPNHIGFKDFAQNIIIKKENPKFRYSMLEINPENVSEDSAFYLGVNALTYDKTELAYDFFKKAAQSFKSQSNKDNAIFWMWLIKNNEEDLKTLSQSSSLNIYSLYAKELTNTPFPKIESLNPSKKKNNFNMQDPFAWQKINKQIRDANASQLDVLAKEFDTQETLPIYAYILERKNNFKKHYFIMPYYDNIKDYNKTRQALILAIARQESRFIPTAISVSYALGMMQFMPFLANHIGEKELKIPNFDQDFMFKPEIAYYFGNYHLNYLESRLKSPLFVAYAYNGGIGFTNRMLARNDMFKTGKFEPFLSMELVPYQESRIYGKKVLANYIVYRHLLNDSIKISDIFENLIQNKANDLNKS

As for `CC(=O)N[C@H]1[C@H](O[C@H]2C[C@@H](C(=O)NCCS(=O)(=O)O)N[C@@H]2CO)O[C@H](CO)[C@@H](OS(=O)(=O)O)[C@@H]1O` [bulgecin A], the affinity, expressed as Kd, was 210 µM.
